ChEMBL document CHEMBL5649169 (ChemMedChem, 2018)

How the values were obtained:
[1] = biological target: Annexin A7 (Homo sapiens) (UniProt P20073); further: assay method not described here
[2] = biological target: Glycogen synthase kinase-3 alpha (Homo sapiens) (UniProt P49840); further: assay method not described here
Ephrin type-A receptor 3 = Ephrin type-A receptor 3 (Homo sapiens, UniProt P29320); assay: Inhibition of Nano Luc-fused full length C-terminal EPHA3 (unknown origin) expressed in HEK293T cells using NanoGlo as substrate incubated for 2 hrs in presence of tracer by NanoBRET assay; type: cell-based
[3] = biological target: Phosphatidylinositol 4-kinase alpha (Homo sapiens) (UniProt P42356); further: assay method not described here
[4] = biological target: DDB1- and CUL4-associated factor 7 (Homo sapiens) (UniProt P61962); further: assay method not described here
Sequence of DDB1- and CUL4-associated factor 7 (Homo sapiens) (P61962 whole entry): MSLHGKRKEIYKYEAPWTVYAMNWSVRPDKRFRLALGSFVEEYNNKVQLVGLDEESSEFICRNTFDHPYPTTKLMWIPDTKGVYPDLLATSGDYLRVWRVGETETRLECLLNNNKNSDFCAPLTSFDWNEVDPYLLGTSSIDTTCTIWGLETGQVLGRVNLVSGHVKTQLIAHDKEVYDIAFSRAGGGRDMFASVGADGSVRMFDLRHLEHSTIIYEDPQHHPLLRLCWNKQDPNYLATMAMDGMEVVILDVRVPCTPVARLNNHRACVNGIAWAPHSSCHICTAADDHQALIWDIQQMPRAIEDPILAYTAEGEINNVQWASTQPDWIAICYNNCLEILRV

[5] = biological target: 14-3-3 protein gamma (Homo sapiens) (UniProt P61981); further: assay method not described here
Sequence of 14-3-3 protein gamma (Homo sapiens) (P61981 whole entry): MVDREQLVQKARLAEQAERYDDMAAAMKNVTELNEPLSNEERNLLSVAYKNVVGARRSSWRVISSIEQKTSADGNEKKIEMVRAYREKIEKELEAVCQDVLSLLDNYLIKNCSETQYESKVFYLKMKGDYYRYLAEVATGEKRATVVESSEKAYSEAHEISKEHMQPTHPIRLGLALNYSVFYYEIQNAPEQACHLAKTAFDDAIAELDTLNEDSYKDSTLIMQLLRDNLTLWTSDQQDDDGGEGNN

[6] = biological target: G2/mitotic-specific cyclin-B1 (Homo sapiens) (UniProt P14635); further: assay method not described here
[7] = biological target: eIF5-mimic protein 2 (Homo sapiens) (UniProt Q7L1Q6); further: assay method not described here
Sequence of eIF5-mimic protein 2 (Homo sapiens) (Q7L1Q6 whole entry): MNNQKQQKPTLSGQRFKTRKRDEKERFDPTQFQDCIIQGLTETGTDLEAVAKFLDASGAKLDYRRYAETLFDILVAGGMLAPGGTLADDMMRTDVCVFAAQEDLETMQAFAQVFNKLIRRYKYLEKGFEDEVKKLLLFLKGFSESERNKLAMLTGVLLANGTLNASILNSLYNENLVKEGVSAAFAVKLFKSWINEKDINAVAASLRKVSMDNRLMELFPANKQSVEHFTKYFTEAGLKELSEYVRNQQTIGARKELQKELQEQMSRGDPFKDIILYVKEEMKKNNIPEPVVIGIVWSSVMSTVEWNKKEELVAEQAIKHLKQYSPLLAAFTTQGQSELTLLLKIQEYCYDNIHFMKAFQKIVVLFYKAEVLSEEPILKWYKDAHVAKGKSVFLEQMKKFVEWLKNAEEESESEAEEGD

[8] = biological target: L-lactate dehydrogenase B chain (Homo sapiens) (UniProt P07195); further: assay method not described here
Sequence of L-lactate dehydrogenase B chain (Homo sapiens) (P07195 2-334 limits assumed): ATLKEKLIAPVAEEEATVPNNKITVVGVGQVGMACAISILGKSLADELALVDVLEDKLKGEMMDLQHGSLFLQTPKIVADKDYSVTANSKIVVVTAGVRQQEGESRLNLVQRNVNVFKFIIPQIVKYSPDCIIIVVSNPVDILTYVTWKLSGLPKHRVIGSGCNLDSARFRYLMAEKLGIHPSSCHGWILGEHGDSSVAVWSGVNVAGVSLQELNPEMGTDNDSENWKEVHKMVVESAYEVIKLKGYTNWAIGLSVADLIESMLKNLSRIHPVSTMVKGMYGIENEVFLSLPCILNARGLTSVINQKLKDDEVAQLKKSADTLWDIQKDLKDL

[9] = biological target: Serine/threonine-protein kinase N1 (Homo sapiens) (UniProt Q16512); further: assay method not described here
[10] = biological target: Actin-related protein 2/3 complex subunit 5 (Homo sapiens) (UniProt O15511); further: assay method not described here
[11] = biological target: Proteasome Macropain subunit (Homo sapiens) (UniProt P49721); further: assay method not described here
[12] = biological target: HLA class I histocompatibility antigen, A alpha chain (Homo sapiens) (UniProt P04439); further: assay method not described here
[13] = biological target: Nuclear pore complex protein Nup155 (Homo sapiens) (UniProt O75694); further: assay method not described here
[14] = biological target: Aromatic-L-amino-acid decarboxylase (Homo sapiens) (UniProt P20711); further: assay method not described here
[15] = biological target: Protein diaphanous homolog 1 (Homo sapiens) (UniProt O60610); further: assay method not described here
[16] = biological target: Cytoskeleton-associated protein 4 (Homo sapiens) (UniProt Q07065); further: assay method not described here
[17] = biological target: Heat shock protein 105 kDa (Homo sapiens) (UniProt Q92598); further: assay method not described here
[18] = biological target: Drebrin-like protein (Homo sapiens) (UniProt Q9UJU6); further: assay method not described here
[19] = biological target: Katanin p60 ATPase-containing subunit A-like 2 (Homo sapiens) (UniProt Q8IYT4); further: assay method not described here
[20] = biological target: Isocitrate dehydrogenase [NAD] subunit alpha, mitochondrial (Homo sapiens) (UniProt P50213); further: assay method not described here
[21] = biological target: Growth hormone-inducible transmembrane protein (Homo sapiens) (UniProt Q9H3K2); further: assay method not described here
[22] = biological target: Eukaryotic translation initiation factor 4 gamma 1 (Homo sapiens) (UniProt Q04637); further: assay method not described here
[23] = biological target: DNA topoisomerase 1 (Homo sapiens) (UniProt P11387); further: assay method not described here
[24] = biological target: Fibroblast growth factor receptor 1 (Homo sapiens) (UniProt P11362); further: assay method not described here
[25] = biological target: ATP-dependent 6-phosphofructokinase, liver type (Homo sapiens) (UniProt P17858); further: assay method not described here
[26] = biological target: Serine/arginine-rich splicing factor 1 (Homo sapiens) (UniProt Q07955); further: assay method not described here
Sequence of Serine/arginine-rich splicing factor 1 (Homo sapiens) (Q07955 whole entry): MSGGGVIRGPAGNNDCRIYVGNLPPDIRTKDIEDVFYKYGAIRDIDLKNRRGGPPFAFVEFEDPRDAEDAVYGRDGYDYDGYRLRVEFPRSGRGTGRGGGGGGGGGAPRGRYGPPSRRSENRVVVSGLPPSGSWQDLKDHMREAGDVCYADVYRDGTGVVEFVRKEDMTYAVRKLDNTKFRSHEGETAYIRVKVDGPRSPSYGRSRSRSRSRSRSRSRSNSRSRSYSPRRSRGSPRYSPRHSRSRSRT

[27] = biological target: Fatty acid synthase (Homo sapiens) (UniProt P49327); further: assay method not described here
[28] = biological target: Small ribosomal subunit protein uS5 (Homo sapiens) (UniProt P15880); further: assay method not described here
Homo sapiens [29] = species on record: Homo sapiens; further: assay method not described here
[30] = biological target: Cold shock domain-containing protein E1 (Homo sapiens) (UniProt O75534); further: assay method not described here
Homo sapiens [31] = species on record: Homo sapiens; remark: listed apart in the source; further: assay method not described here
Homo sapiens [32] = species on record: Homo sapiens; remark: listed apart in the source; further: assay method not described here
[33] = biological target: Constitutive coactivator of PPAR-gamma-like protein 1 (Homo sapiens) (UniProt Q9NZB2); further: assay method not described here
[34] = biological target: 5'-AMP-activated protein kinase catalytic subunit alpha-1 (Homo sapiens) (UniProt Q13131); further: assay method not described here
Sequence of 5'-AMP-activated protein kinase catalytic subunit alpha-1 (Homo sapiens) (Q13131 whole entry, looked up): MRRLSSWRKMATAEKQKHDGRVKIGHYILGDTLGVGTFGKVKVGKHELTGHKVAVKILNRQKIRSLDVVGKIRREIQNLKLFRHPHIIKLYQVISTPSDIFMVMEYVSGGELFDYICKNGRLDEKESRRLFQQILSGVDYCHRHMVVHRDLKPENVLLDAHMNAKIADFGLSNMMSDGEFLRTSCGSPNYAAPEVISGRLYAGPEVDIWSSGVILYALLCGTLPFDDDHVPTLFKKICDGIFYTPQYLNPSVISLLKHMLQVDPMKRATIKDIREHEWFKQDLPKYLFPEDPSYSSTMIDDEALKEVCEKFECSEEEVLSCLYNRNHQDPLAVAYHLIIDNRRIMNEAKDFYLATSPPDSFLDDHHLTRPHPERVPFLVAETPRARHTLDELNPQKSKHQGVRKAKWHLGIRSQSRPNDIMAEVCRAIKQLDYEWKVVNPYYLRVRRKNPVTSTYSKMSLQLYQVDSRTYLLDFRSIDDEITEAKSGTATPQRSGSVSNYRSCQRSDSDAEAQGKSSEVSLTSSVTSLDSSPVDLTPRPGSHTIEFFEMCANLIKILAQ

[35] = biological target: N-alpha-acetyltransferase 15, NatA auxiliary subunit (Homo sapiens) (UniProt Q9BXJ9); further: assay method not described here
[36] = biological target: Serine hydroxymethyltransferase, mitochondrial (Homo sapiens) (UniProt P34897); further: assay method not described here
Sequence of Serine hydroxymethyltransferase, mitochondrial (Homo sapiens) (P34897 whole entry): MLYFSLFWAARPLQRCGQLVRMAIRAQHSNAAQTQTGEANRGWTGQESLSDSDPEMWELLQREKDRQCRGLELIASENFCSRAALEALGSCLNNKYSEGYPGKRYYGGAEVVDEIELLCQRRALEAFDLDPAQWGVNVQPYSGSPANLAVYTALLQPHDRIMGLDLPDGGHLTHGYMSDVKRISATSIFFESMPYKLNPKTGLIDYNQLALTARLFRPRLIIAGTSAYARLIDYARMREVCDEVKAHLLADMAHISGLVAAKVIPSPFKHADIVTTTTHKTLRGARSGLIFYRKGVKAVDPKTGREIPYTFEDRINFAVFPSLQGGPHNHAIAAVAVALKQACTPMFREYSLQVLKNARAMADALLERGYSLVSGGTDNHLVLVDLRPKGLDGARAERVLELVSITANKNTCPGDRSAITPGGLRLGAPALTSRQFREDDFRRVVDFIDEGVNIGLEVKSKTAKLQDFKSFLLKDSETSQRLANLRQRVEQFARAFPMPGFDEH

[37] = biological target: Heat shock protein 75 kDa, mitochondrial (Homo sapiens) (UniProt Q12931); further: assay method not described here
[38] = biological target: RNA-binding protein 28 (Homo sapiens) (UniProt Q9NW13); further: assay method not described here
[39] = biological target: S-adenosylmethionine synthase isoform type-2 (Homo sapiens) (UniProt P31153); further: assay method not described here
[40] = biological target: General transcription factor II-I (Homo sapiens) (UniProt P78347); further: assay method not described here
Sequence of General transcription factor II-I (Homo sapiens) (P78347 whole entry): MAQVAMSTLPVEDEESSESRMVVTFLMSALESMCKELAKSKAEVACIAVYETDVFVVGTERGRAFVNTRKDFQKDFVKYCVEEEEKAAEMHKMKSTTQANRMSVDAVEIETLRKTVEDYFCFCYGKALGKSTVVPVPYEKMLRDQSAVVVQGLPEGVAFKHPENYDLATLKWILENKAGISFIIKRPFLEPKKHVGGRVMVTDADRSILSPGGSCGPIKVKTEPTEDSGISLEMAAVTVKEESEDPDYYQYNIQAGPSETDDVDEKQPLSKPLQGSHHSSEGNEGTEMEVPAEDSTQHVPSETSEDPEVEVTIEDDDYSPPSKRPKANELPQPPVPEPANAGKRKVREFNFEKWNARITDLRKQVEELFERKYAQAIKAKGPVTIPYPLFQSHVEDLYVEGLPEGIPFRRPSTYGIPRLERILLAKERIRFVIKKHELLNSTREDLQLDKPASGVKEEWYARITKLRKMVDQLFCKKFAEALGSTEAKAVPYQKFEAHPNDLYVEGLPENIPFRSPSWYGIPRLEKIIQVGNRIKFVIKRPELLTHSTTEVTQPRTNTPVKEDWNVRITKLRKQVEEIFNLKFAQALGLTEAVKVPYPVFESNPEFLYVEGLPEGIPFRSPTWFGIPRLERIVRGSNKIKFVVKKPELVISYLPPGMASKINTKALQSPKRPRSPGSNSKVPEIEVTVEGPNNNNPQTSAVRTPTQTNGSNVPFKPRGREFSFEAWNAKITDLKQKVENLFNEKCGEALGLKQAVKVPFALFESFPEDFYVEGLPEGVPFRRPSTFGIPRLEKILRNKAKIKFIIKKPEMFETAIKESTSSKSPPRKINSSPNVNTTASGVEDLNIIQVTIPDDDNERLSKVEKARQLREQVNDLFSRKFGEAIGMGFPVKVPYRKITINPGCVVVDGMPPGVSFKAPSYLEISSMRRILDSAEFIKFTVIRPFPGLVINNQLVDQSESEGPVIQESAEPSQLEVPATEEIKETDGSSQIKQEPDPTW

[41] = biological target: Tyrosine--tRNA ligase, cytoplasmic (Homo sapiens) (UniProt P54577); further: assay method not described here
[42] = biological target: Golgi apparatus protein 1 (Homo sapiens) (UniProt Q92896); further: assay method not described here
[43] = biological target: Serine/threonine-protein kinase TAO2 (Homo sapiens) (UniProt Q9UL54); further: assay method not described here
Sequence of Serine/threonine-protein kinase TAO2 (Homo sapiens) (Q9UL54 whole entry): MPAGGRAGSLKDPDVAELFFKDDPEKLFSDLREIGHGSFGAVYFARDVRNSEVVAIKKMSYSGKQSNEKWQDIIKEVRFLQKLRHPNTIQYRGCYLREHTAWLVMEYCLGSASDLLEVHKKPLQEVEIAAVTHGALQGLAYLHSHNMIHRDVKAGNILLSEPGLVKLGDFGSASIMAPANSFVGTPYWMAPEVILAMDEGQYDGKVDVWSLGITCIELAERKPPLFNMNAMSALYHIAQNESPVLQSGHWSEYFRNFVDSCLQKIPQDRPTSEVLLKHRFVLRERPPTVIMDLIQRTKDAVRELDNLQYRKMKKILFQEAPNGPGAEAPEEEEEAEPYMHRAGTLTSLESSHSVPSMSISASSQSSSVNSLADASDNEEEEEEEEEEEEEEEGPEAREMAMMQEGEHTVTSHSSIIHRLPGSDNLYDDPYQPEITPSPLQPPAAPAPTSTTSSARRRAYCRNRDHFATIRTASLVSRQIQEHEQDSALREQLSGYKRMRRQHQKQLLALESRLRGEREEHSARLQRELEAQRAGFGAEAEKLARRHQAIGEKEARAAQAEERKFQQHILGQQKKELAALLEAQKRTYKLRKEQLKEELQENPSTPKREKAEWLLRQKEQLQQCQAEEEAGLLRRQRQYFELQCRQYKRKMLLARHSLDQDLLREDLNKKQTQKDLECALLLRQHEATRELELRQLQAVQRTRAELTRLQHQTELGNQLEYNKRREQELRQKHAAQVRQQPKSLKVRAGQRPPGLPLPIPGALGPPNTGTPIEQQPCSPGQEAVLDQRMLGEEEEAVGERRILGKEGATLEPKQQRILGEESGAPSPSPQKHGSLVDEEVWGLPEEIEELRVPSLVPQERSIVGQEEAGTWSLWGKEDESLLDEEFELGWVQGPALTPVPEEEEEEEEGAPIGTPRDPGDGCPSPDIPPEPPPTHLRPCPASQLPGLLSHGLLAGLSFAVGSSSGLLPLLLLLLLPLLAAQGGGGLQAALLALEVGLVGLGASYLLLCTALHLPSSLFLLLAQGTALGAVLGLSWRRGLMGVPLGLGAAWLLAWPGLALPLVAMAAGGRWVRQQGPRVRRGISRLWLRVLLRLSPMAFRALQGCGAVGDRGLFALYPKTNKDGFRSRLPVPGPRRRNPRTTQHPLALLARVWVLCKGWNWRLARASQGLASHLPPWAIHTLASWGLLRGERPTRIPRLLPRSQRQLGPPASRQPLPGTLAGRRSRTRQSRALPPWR

[44] = biological target: Interleukin-1 receptor-associated kinase 3 (Homo sapiens) (UniProt Q9Y616); further: assay method not described here
[45] = biological target: Platelet-derived growth factor receptor beta (Homo sapiens) (UniProt P09619); further: assay method not described here

Cc1ccc(C(=O)Nc2cccc(C(F)(F)F)c2)cc1Nc1nc(-c2cccnc2)nc2c1cnn2C
ED50 [1]: 21.9 µM
ED50 [2]: 0.00363 µM
IC50 (Ephrin type-A receptor 3): 0.0003 µM
ED50 [3]: 18.6 µM
ED50 [4]: 1.12 µM
ED50 [5]: 0.00449 µM
ED50 [6]: 0.205 µM
ED50 [7]: 0.571 µM
ED50 [8]: 0.00831 µM
ED50 [9]: 0.626 µM
ED50 [10]: 3.49 µM
ED50 [11]: 3.31 µM
ED50 [12]: 19000 µM
ED50 [13]: 0.537 µM
ED50 [14]: 0.0409 µM
ED50 [15]: 0.00521 µM
ED50 [16]: 0.00547 µM
ED50 [17]: 2.99 µM
ED50 [18]: 0.133 µM
ED50 [19]: 0.0376 µM
ED50 [20]: 0.836 µM
ED50 [21]: 0.00891 µM
ED50 [22]: 0.0238 µM
ED50 [23]: 0.0425 µM
ED50 [24]: 11.2 µM
ED50 [25]: 111 µM
ED50 [26]: 9.12 µM
ED50 [27]: 0.0377 µM
ED50 [28]: 0.0804 µM
ED50 (Homo sapiens [29]): 5.49 µM
ED50 [30]: 72.6 µM
ED50 (Homo sapiens [31]): 3.52 µM
ED50 (Homo sapiens [32]): 0.878 µM
ED50 [33]: 4.66 µM
ED50 [34]: 13.2 µM
ED50 [35]: 11.7 µM
ED50 [36]: 58.3 µM
ED50 [37]: 7.63 µM
ED50 [38]: 0.021 µM
ED50 [39]: 11.2 µM
ED50 [40]: 2.77 µM
ED50 [41]: 0.157 µM
ED50 [42]: 6.56 µM
ED50 [43]: 23.9 µM
ED50 [44]: 1.34 µM
ED50 [45]: 0.000102 µM

Cc1ccc(C(=O)Nc2cccc(C(F)(F)F)c2)cc1Nc1nc(-c2cccnc2)nc2nn(C)cc12
ED50 [1]: 0.0697 µM
ED50 [2]: 0.0885 µM
IC50 (Ephrin type-A receptor 3): 0.05 µM
ED50 [3]: 50.1 µM
ED50 [4]: 0.184 µM
ED50 [5]: 0.68 µM
ED50 [6]: 5.61 µM
ED50 [7]: 2.54 µM
ED50 [8]: 9.99 µM
ED50 [9]: 0.245 µM
ED50 [10]: 2.93 µM
ED50 [11]: 0.0536 µM
ED50 [12]: 0.0554 µM
ED50 [13]: 0.193 µM
ED50 [14]: 1.52 µM
ED50 [15]: 1.44 µM
ED50 [16]: 0.174 µM
ED50 [17]: 8.65 µM
ED50 [18]: 0.0059 µM
ED50 [19]: 0.00647 µM
ED50 [20]: 0.0344 µM
ED50 [21]: 0.0192 µM
ED50 [22]: 0.0778 µM
ED50 [23]: 0.00653 µM
ED50 [24]: 0.0526 µM
ED50 [25]: 0.0338 µM
ED50 [26]: 0.0562 µM
ED50 [27]: 0.107 µM
ED50 [28]: 1.83 µM
ED50 (Homo sapiens [29]): 0.961 µM
ED50 [30]: 0.099 µM
ED50 (Homo sapiens [31]): 43.2 µM
ED50 (Homo sapiens [32]): 0.217 µM
ED50 [33]: 0.00365 µM
ED50 [34]: 0.0591 µM
ED50 [35]: 2.07 µM
ED50 [36]: 0.345 µM
ED50 [37]: 9 µM
ED50 [38]: 1.75 µM
ED50 [39]: 0.0257 µM
ED50 [40]: 0.0945 µM
ED50 [41]: 0.0572 µM
ED50 [42]: 0.162 µM
ED50 [43]: 4.27 µM
ED50 [44]: 0.0262 µM
ED50 [45]: 10 µM
